These are literature values, as cited in US20190076366A1, “PHARMACEUTICAL COMPOSITION OF ENTECAVIR AND PROCESS OF MANUFACTURING” (Pharmascience, Inc., priority 2012, published 2019).

The structures appear in SMILES notation.

The conditions of data set [1]: 25°±0.5° C.

With `C=C1C(n2cnc3c(=O)[nH]c(N)nc32)C[C@H](O)[C@H]1CO` (stereo partly drawn) [Entecavir, 2-amino-l,9-dihydro-9-[(1S,3R,4S)-4-hydroxy-3-(hydroxymethyl)-2-methylenecyclopentyl]-6H-purin-6-one, monohydrate], the “pH of the saturated solution in water” value in data set [1] was 7.9. In addition, under “in water”, the water solubility is listed as 2.4 mg/mL. The “solubility in purified water” value (purified water) is 2.4 mg/mL.
